Tests used:
Assay type in all cases: cell-based
[1] = tested on: human red blood peripheral cells (O+); assay: Hemocompatibility (hemolysis) in red blood cells; settings: 1 h at 37 °C
Method: The hemocompatibility of the spiro-acridine derivatives was determined using human red blood peripheral cells (O+) from healthy adults. The erythrocytes were diluted in phosphate-buffered saline (PBS) to a concentration of 5% in an 80 µL suspension and subsequently incubated with 20 µL of different concentrations of spiro-acridine derivatives and Amphotericin B® (400, 200, 100, 50, 25, 12,5, 6,25 and 3,12 μg/mL). Afterward, the samples were incubated for 1 h at 37 °C in a B.O.D incubator, and the reaction was stopped by adding 200 μL of PBS (1.5 mM KH2PO4, 8.1 mM Na2HPO4, 136.9 mM NaCl, and 2.6 mM KCl, pH 7.2). The samples were centrifuged at 2000 rpm for 10 min, at room temperature. The supernatants were collected and subjected to spectrophotometry using a spectrophotometer (model Biosystems ELx800, Curitiba, PR, Brazil) at 540 nm. The hemolysis percentage was determined as [(Abssam − Abscon)/(Abstot − Abscon) × 100], where Abssam refers to the absorbance of the sample, Abscon to the absorbance of the blank control (without compounds), and Abstot to the absorbance of total hemolysis (obtained by replacing the sample solution with an equal volume of Milli-Q water). The results were expressed as average hemolytic concentration (HC50), considering the positive control as 100% hemolysis.

J774A.1 macrophages = assay: Cytotoxic effect in J774 macrophage cultures, MTT; settings: read-out: CC50 (50% cytotoxic concentration in J774 macrophage)
Method: J774A.1 macrophages (ATCC TIB-67) were kept cryopreserved in a Falcon tube containing 5 mL of DMEM (Dulbecco’s modified Eagle medium) culture medium (Gibco®), supplemented with 10% inactivated fetal bovine serum, 1% non-essential amino acids, and 1% gentamicin sulfate. The tube was centrifuged at 200 rpm for 10 min. Afterward, the supernatant was discarded, and the cells were resuspended in the culture medium and transferred to a culture bottle kept in an incubator at 37 °C with 5% CO2. The assays were carried out in triplicate using a 96-well plate to evaluate the cytotoxic effect of the selected spiro-acridine compounds on J774 macrophage cultures. The compounds were diluted and seeded at predetermined concentrations (32, 16, 8, 4, and 2 μg/mL), parallel to the distribution of 1.0 × 10^5 J774 macrophages per well. The plate was incubated for two hours in a 5% CO2 incubator at 37 °C. Only the cells were incubated in the negative control without the tested molecules. In contrast, the positive control was performed by incubating the macrophages with the commercial drug Amphotericin B®. Later, 10 μL of the MTT reagent was added per well, and the cultures were re-incubated for 4 h. Finally, 50 μL of DMSO was added to each well, and the absorbance was read on a SpectraMAX GeminiXS plate spectrophotometer (Molecular Devices LLC, San Jose, CA, USA) at a wavelength of 570 nm. […]

[2] = tested on: J774 macrophages infected with L. amazonensis amastigotes; assay: Cytokine profile by cytometry bead assay (CBA); settings: 24 h; for IL-6 expression: 8 µg/mL, versus untreated infected macrophages; for modulation of the IL-2 response: basal or infected macrophages, 2, 4 and 8 µg/mL; for IL-4 expression / IL-10 expression / TNF-α expression: infected macrophages, 2, 4 and 8 µg/mL; for TNF-α expression: versus untreated infected
Method: The assessment of the influence of spiro-acridine derivatives on the cytokine profile of immunological responses was carried out by the quantification of the cytokines IL-2, IL-4, IL-6, IL-10, IL-17A, INF-γ, and TNF-α in supernatants of cell cultures of J774 macrophages infected with L. amazonensis amastigotes through cytometry bead assay (CBA), according to the manufacturer’s instructions (BD Bioscience, Franklin Lakes, NJ, USA). The cells were adhered to a plate, infected with amastigotes of L. amazonensis, and treated with the spiro-acridines under analysis in the following concentrations: 2, 4, and 8 μg/mL. After the 24-h treatment period, 50 μL of the supernatant from each well was transferred to a conical tube, while 50 μL of the capture bead mixture and 50 μL of the detection reagent were added. The samples were incubated for 2 h at room temperature and protected from light. After incubation, 500 μL of washing buffer was added to each tube, followed by centrifugation for 5 min. The supernatant was discarded, and 300 μL of washing buffer was added. A calibration curve containing the following concentrations of each cytokine was added to the experiment: 0, 20, 40, 80, 156, 312.5, 625, 1250, 2500, and 5000 pg/mL. Uninfected and untreated macrophages were used as the negative control, while the untreated macrophages infected with L. amazonensis were used as the positive control. The fluorescence intensity in each sample was captured on the BD LRS II FORTESSA flow cytometer using the DIVA program version 7 (BD Bioscience), and the fluorescence data was processed using the FCAP array program version 3 (BD Bioscience). The experiments were performed in triplicate.

SMILES | HC50 (concentration capable of promoting 50% hemolysis) [1] [µM] | CC50 (J774A.1 macrophages) [µM] | IL-6 expression [2] | modulation of the IL-2 response [2] | IL-4 expression [2] | IL-10 expression [2] | TNF-α expression [2] | IL-17A level (Th17 response) ([2]; versus basal and parasite-infected macrophages)
N#CC1=CC2(c3ccccc3Nc3ccccc32)N(c2ccc(Cl)cc2)C1=O [ACMD-03, (E)1′-(4-chlorophenyl)-5′-oxo-1′, 5′-dihydro-10H-spiro{acridine-9,2′-pyrrole]-4′-carbonitrile] | >400 | 27.2 | significant decrease in IL-6 expression | did not demonstrate a modulation of the IL-2 response | Neither of the two molecules significantly influenced IL-4 expression | significantly increased the expression of IL-10 at concentrations of 4 and 8 µg/mL | significant reduction in TNF-α expression | significant increase in this interleukin at a concentration of 4 µg/mL
COc1ccc(/C=N/N2C(=O)C(C#N)=CC23c2ccccc2Nc2ccccc23)cc1 [AMTAC-02, (E)-1′-((4-methoxybenzylidene)amino)-5′-oxo-1′,5′-dihydro-10H-spiro[acridine-9,2′-pyrrole]-4′-carbonitrile] | >400 |  | significant decrease in IL-6 expression | did not demonstrate a modulation of the IL-2 response | Neither of the two molecules significantly influenced IL-4 expression | no significant increase in IL-10 expression | significant reduction in TNF-α expression | 

Source: publication PMC12195250, “Synthesis, Biological Evaluation, Molecular Dynamics, and QM-MM Calculation of Spiro-Acridine Derivatives Against Leishmaniasis” (Microorganisms, 2025)
